One molecule from article PMC12051620, “Molecular basis underlying the specificity of an antagonist AA92593 for mammalian melanopsins” (The Journal of Biological Chemistry, 2025) can be followed below.

The subject of this assay is lanceolatum melanopsin WT. Description: GsX GloSensor assay with Gsα/q11. In kind it is cell-based, Branchiostoma lanceolatum. To be noted: 16.7 μM AA92593, COS-1 cells. The source says:
Non-mammalian-type melanopsins were successfully converted into AA92593-susceptible types by introducing Phe-94^2.61/Ser-188^ECL2/Ser-269^6.52 or Phe-207^5.42 (Fig. 6). We attempted to extend the functional conversion targets to invertebrate melanopsin (see Fig. S2). […] We assessed the susceptibility of belcheri and lanceolatum melanopsins to AA92593 using the GsX GloSensor assay with Gsα/q11. In the absence of AA92593, the belcheri melanopsin produced smaller light-dependent cAMP responses than the other melanopsins assessed in this study (Fig. 7A), whereas the lanceolatum melanopsin produced robust cAMP responses upon light illumination (Fig. 7B). […] On the other hand, responses by the lanceolatum melanopsin were insensitive to the antagonist (Fig. 7B), similar to non-mammalian-type melanopsins (Fig. 6, A and D). […]
For GloSensor assay, opsins, GloSensor assay sensor (coded by pGlo-22F), and NanoBiT-tagged G proteins were transiently expressed in COS-1 cells (kindly provided from Dr David Farrens, Oregon Health and Science University) using PEI as described previously ([24], [52]). […] For GFP-fluorescence microscopy, a 35-mm cell culture dish (IWAKI) was transfected with 2 μg melanopsin-GFP plasmid and 8 μg PEI in 400 μl Opti-mem and 1.2 ml D-MEM. […]

Take `COc1ccc(S(=O)(=O)N2CCCCC2)cc1C` [AA92593]: the “sensitivity of light-induced responses to the antagonist” value is “insensitive”.
